# Laboratory results published in ChEMBL document CHEMBL1201862, “PubChem BioAssay data set” (2004).
#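 Step 1: Grow cells in 96-well plates. Step 2: Expose to compound for 48 hours at 5 concentrations. Step 3: Interpolate endpoints linearly; if unreached, use highest concentration. GI50 = concentration required for 50% inhibition of growth.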 Activity calls are given as the source filed them. Cut-off read from the data, not from the text of the source: active = GI50 up to about 1.1 µM and inactive = higher.
# Key:
# Assay in all cases: NCI-60 cell line screen, 48 h
# MDA-MB-231 = system: MDA-MB-231
# HCT-15 = system: HCT-15
# TK-10 = system: TK-10
# NCI/ADR-RES = system: NCI/ADR-RES
# COLO 205 = system: COLO 205
# MDA-N = system: MDA-N
# HT-29 = system: HT-29
# UO-31 = system: UO-31
# ACHN = system: ACHN
# K562 = system: K562
# NCI-H460 = system: NCI-H460
# Malme-3M = system: Malme-3M
# UACC-62 = system: UACC-62
# NCI-H226 = system: NCI-H226
# PC-3 = system: PC-3
# SR = system: SR
# SN12C = system: SN12C
# SNB-19 = system: SNB-19
# IGROV-1 = system: IGROV-1
# RPMI-8226 = system: RPMI-8226
# HOP-92 = system: HOP-92
# LOX IMVI = system: LOX IMVI
# MCF7 = system: MCF7
# 786-0 = system: 786-0
# Hs-578T = system: Hs-578T
# BT-549 = system: BT-549
# A549 = system: A549
# SF-268 = system: SF-268
# OVCAR-4 = system: OVCAR-4
# SF-539 = system: SF-539
# SF-295 = system: SF-295
# SK-OV-3 = system: SK-OV-3
# T47D = system: T47D
# NCI-H522 = system: NCI-H522
# SK-MEL-28 = system: SK-MEL-28
# SK-MEL-5 = system: SK-MEL-5
# DU-145 = system: DU-145
# UACC-257 = system: UACC-257
# MDA-MB-435 = system: MDA-MB-435
# HOP-62 = system: HOP-62
# HCC 2998 = system: HCC 2998
# OVCAR-8 = system: OVCAR-8
# M14 = system: M14
# HL-60 = system: HL-60
# MOLT-4 = system: MOLT-4
# RXF 393 = system: RXF 393
# OVCAR-3 = system: OVCAR-3
# SW-620 = system: SW-620
# EKVX = system: EKVX
# OVCAR-5 = system: OVCAR-5
# SK-MEL-2 = system: SK-MEL-2
# HCT-116 = system: HCT-116
# NCI-H23 = system: NCI-H23
# U-251 = system: U-251
# CAKI-1 = system: CAKI-1
# A498 = system: A498
# KM12 = system: KM12
# CCRF-CEM = system: CCRF-CEM
# SNB-75 = system: SNB-75
compound,measurement,setting,value
O=C(O)c1cc(-c2ccncc2)nc2ccccc12,GI50,MDA-MB-231,> 100 µM (inactive)
same,GI50,HCT-15,> 100 µM
same,GI50,TK-10,> 100 µM (inactive)
same,GI50,NCI/ADR-RES,> 100 µM (inactive)
same,GI50,COLO 205,> 100 µM (inactive)
same,GI50,MDA-N,> 100 µM (inactive)
same,GI50,HT-29,> 100 µM (inactive)
same,GI50,UO-31,> 100 µM (inactive)
same,GI50,ACHN,> 100 µM (inactive)
same,GI50,K562,> 100 µM (inactive)
same,GI50,NCI-H460,> 100 µM (inactive)
same,GI50,Malme-3M,> 100 µM (inactive)
same,GI50,UACC-62,> 100 µM (inactive)
same,GI50,NCI-H226,> 100 µM (inactive)
same,GI50,PC-3,> 100 µM (inactive)
same,GI50,SR,> 100 µM (inactive)
same,GI50,SN12C,> 100 µM (inactive)
same,GI50,SNB-19,> 100 µM (inactive)
same,GI50,IGROV-1,> 100 µM (inactive)
same,GI50,RPMI-8226,> 100 µM (inactive)
same,GI50,HOP-92,> 100 µM (inactive)
same,GI50,LOX IMVI,> 100 µM (inactive)
same,GI50,MCF7,> 100 µM (inactive)
same,GI50,786-0,> 100 µM (inactive)
same,GI50,Hs-578T,> 100 µM (inactive)
same,GI50,BT-549,> 100 µM (inactive)
same,GI50,A549,> 100 µM (inactive)
same,GI50,SF-268,> 100 µM (inactive)
same,GI50,OVCAR-4,> 100 µM (inactive)
same,GI50,SF-539,> 100 µM (inactive)
same,GI50,SF-295,> 100 µM (inactive)
same,GI50,SK-OV-3,> 100 µM (inactive)
same,GI50,T47D,> 100 µM (inactive)
same,GI50,NCI-H522,> 100 µM (inactive)
same,GI50,SK-MEL-28,> 100 µM (inactive)
same,GI50,SK-MEL-5,> 100 µM (inactive)
same,GI50,DU-145,> 100 µM (inactive)
same,GI50,UACC-257,> 100 µM (inactive)
same,GI50,MDA-MB-435,> 100 µM (inactive)
same,GI50,HOP-62,> 100 µM (inactive)
same,GI50,HCC 2998,> 100 µM (inactive)
same,GI50,OVCAR-8,> 100 µM (inactive)
same,GI50,M14,> 100 µM (inactive)
same,GI50,HL-60,> 100 µM (inactive)
same,GI50,MOLT-4,> 100 µM (inactive)
same,GI50,RXF 393,> 100 µM (inactive)
same,GI50,OVCAR-3,> 100 µM (inactive)
same,GI50,SW-620,> 100 µM (inactive)
same,GI50,EKVX,> 100 µM (inactive)
same,GI50,OVCAR-5,> 100 µM (inactive)
same,GI50,SK-MEL-2,> 100 µM (inactive)
same,GI50,HCT-116,> 100 µM (inactive)
same,GI50,NCI-H23,> 100 µM (inactive)
same,GI50,U-251,> 100 µM (inactive)
same,GI50,CAKI-1,> 100 µM (inactive)
same,GI50,A498,> 100 µM (inactive)
same,GI50,KM12,> 100 µM (inactive)
CCn1c2ccc(O)c(C(=O)OC)c2c2cc3ccccc3c(O)c21,GI50,MDA-MB-231,23.2 µM (inactive)
same,GI50,HCT-15,15.3 µM
same,GI50,TK-10,15.9 µM (inactive)
same,GI50,NCI/ADR-RES,19.8 µM (inactive)
same,GI50,COLO 205,15.3 µM (inactive)
same,GI50,MDA-N,20.5 µM (inactive)
same,GI50,HT-29,18.5 µM (inactive)
same,GI50,UO-31,22.5 µM (inactive)
same,GI50,ACHN,12.6 µM (inactive)
same,GI50,K562,27.9 µM (inactive)
same,GI50,NCI-H460,14.2 µM (inactive)
same,GI50,Malme-3M,2.72 µM (inactive)
same,GI50,UACC-62,23.2 µM (inactive)
same,GI50,NCI-H226,26.2 µM (inactive)
same,GI50,PC-3,20.8 µM (inactive)
same,GI50,SR,17.4 µM (inactive)
same,GI50,SN12C,18.5 µM (inactive)
same,GI50,SNB-19,33 µM (inactive)
same,GI50,IGROV-1,8 µM (inactive)
same,GI50,RPMI-8226,10.2 µM (inactive)
same,GI50,HOP-92,1.95 µM (inactive)
same,GI50,MCF7,22.5 µM (inactive)
same,GI50,786-0,12.3 µM (inactive)
same,GI50,Hs-578T,7.89 µM (inactive)
same,GI50,BT-549,15.2 µM (inactive)
same,GI50,A549,16.3 µM (inactive)
same,GI50,SF-268,16.3 µM (inactive)
same,GI50,OVCAR-4,18.1 µM (inactive)
same,GI50,SF-539,18.7 µM (inactive)
same,GI50,SF-295,27.5 µM (inactive)
same,GI50,SK-OV-3,10.5 µM (inactive)
same,GI50,T47D,11.5 µM (inactive)
same,GI50,NCI-H522,18.3 µM (inactive)
same,GI50,SK-MEL-28,26.2 µM (inactive)
same,GI50,SK-MEL-5,14.2 µM (inactive)
same,GI50,DU-145,14.5 µM (inactive)
same,GI50,UACC-257,31.6 µM (inactive)
same,GI50,MDA-MB-435,17 µM (inactive)
same,GI50,HOP-62,20.2 µM (inactive)
same,GI50,HCC 2998,22.2 µM (inactive)
same,GI50,OVCAR-8,17.4 µM (inactive)
same,GI50,M14,20.7 µM (inactive)
same,GI50,CCRF-CEM,19 µM (inactive)
same,GI50,HL-60,20.1 µM (inactive)
same,GI50,MOLT-4,7.87 µM (inactive)
same,GI50,RXF 393,31.2 µM (inactive)
same,GI50,OVCAR-3,14.5 µM (inactive)
same,GI50,EKVX,35 µM (inactive)
same,GI50,OVCAR-5,32.3 µM (inactive)
same,GI50,SK-MEL-2,13.7 µM (inactive)
same,GI50,HCT-116,12.6 µM (inactive)
same,GI50,NCI-H23,16.9 µM (inactive)
same,GI50,U-251,18 µM (inactive)
same,GI50,CAKI-1,13.4 µM (inactive)
same,GI50,A498,13.1 µM (inactive)
same,GI50,KM12,15.3 µM (inactive)
O=C1CC(=O)NC(NN2C(=O)/C(=C/c3ccc(Cl)c(Cl)c3)N=C2c2ccccc2)=N1,GI50,MDA-MB-231,17.1 µM (inactive)
same,GI50,HCT-15,30.3 µM
same,GI50,TK-10,41.9 µM (inactive)
same,GI50,NCI/ADR-RES,19.8 µM (inactive)
same,GI50,COLO 205,18.8 µM (inactive)
same,GI50,MDA-N,23.9 µM (inactive)
same,GI50,HT-29,22.9 µM (inactive)
same,GI50,UO-31,29.6 µM (inactive)
same,GI50,SNB-75,24 µM (inactive)
same,GI50,ACHN,40.2 µM (inactive)
same,GI50,K562,13.7 µM (inactive)
same,GI50,NCI-H460,15.7 µM (inactive)
same,GI50,Malme-3M,34.8 µM (inactive)
same,GI50,UACC-62,15.7 µM (inactive)
same,GI50,NCI-H226,32.1 µM (inactive)
same,GI50,PC-3,23.1 µM (inactive)
same,GI50,SR,11.7 µM (inactive)
same,GI50,SN12C,17.3 µM (inactive)
same,GI50,IGROV-1,31.1 µM (inactive)
same,GI50,RPMI-8226,13.6 µM (inactive)
same,GI50,HOP-92,27 µM (inactive)
same,GI50,MCF7,16.7 µM (inactive)
same,GI50,786-0,26.9 µM (inactive)
same,GI50,Hs-578T,18.4 µM (inactive)
same,GI50,BT-549,20.7 µM (inactive)
same,GI50,A549,27.2 µM (inactive)
same,GI50,SF-268,24.5 µM (inactive)
same,GI50,OVCAR-4,49.3 µM (inactive)
same,GI50,SF-539,20.8 µM (inactive)
same,GI50,SF-295,32 µM (inactive)
same,GI50,SK-OV-3,46.8 µM (inactive)
same,GI50,T47D,47.1 µM (inactive)
same,GI50,NCI-H522,30.8 µM (inactive)
same,GI50,SK-MEL-28,28.8 µM (inactive)
same,GI50,SK-MEL-5,16.3 µM (inactive)
same,GI50,DU-145,48.2 µM (inactive)
same,GI50,UACC-257,34.2 µM (inactive)
same,GI50,MDA-MB-435,27 µM (inactive)
same,GI50,HOP-62,23.9 µM (inactive)
same,GI50,HCC 2998,19.7 µM (inactive)
same,GI50,OVCAR-8,34 µM (inactive)
same,GI50,M14,28.8 µM (inactive)
same,GI50,CCRF-CEM,11.9 µM (inactive)
same,GI50,MOLT-4,15.2 µM (inactive)
same,GI50,RXF 393,24.8 µM (inactive)
same,GI50,OVCAR-3,19.1 µM (inactive)
same,GI50,SW-620,30.4 µM (inactive)
same,GI50,OVCAR-5,46.7 µM (inactive)
same,GI50,SK-MEL-2,14.1 µM (inactive)
same,GI50,HCT-116,17.7 µM (inactive)
same,GI50,NCI-H23,26.7 µM (inactive)
same,GI50,U-251,23.9 µM (inactive)
same,GI50,CAKI-1,85.3 µM (inactive)
same,GI50,A498,23.4 µM (inactive)
same,GI50,KM12,16.4 µM (inactive)
